{"source": "paper PMC12097015", "about": "“Development of MDM2‐Targeting PROTAC for Advancing Bone Regeneration” (Advanced Science, 2025)", "key": {"bone marrow": {"test_system": "bone marrow", "assay": "Immunohistochemistry of femur bone marrow in the OVX model", "type": "in vivo", "conditions": "OVX mice femur", "experimental": "‐Immunohistochemistry: Decalcified femurs were fixed in 4% paraformaldehyde (PFA) at 4 °C for 24 h, rinsed three times with phosphate‐buffered saline (PBS), and decalcified in 12.5 mM EDTA (pH 8.0) for 14 days. The specimens were dehydrated through a graded ethanol series (70%, 80%, 95%, 100%) and embedded in paraffin. Longitudinal sections (3 µm thick) were prepared using a microtome, mounted on glass slides, and dried at 55 °C. For deparaffinization, slides were treated with xylene (four 5‐min treatments) and rehydrated through descending ethanol concentrations (100%, 95%, 80%, 70%) in 2‐min intervals. Immunohistochemistry was performed with a ready‐to‐use IHC/ICC kit (BioVision, Inc.). Sections were incubated overnight at room temperature with primary antibodies (1:100) against MDM2, p53, Bcl‐2, and cleaved caspase‐3, followed by a 20‐min incubation with HRP‐conjugated anti‐mouse IgG polymer. After PBS washes, antigen‐antibody complexes were visualized using 3,3′‐diaminobenzidine (DAB) for 10 min, and sections were counterstained with hematoxylin for 1 minute. The stained sections were imaged using a Slide Scanner (Zeiss, Germany)."}, "[1]": {"assay": "Pharmacokinetic study in BALB/c mice", "type": "in vivo", "conditions": "mouse, plasma; for MRT last: read-out: MRT0–t; for MRT inf: read-out: MRT0–∞", "experimental": "Pharmacokinetic (PK) studies of CL144 were conducted by Medicilon Preclinical Research (Shanghai) LLC. Six BALB/c mice were divided into two groups, and CL144 was administered by tail vein injection (iv; 1.0 mg kg^−1) or gavage (po; 10 mg kg^−1). Blood samples were collected from the submandibular vein at 0.083, 0.25, 0.5, 1, 4, and 24 h for the iv group and at 0.25, 0.5, 1, 3, 6, and 24 h for the po group. Blood samples were centrifuged at 6800 x g for 6 min at 2–8 °C within 1 h after collection and stored at ≈−80 °C. Plasma samples were analyzed by LC‐MS/MS (TQ6500+), and PK parameters were calculated using the FDA‐certified pharmacokinetic program Phoenix WinNonlin 7.0 (Pharsight, USA)."}, "[2]": {"test_system": "OVX-induced osteoporosis model", "assay": "Ovariectomy (OVX)-induced osteoporosis mouse model", "type": "in vivo, C57BL6 mice", "conditions": "OVX mice", "experimental": "-Establishment of Ovariectomized Mice Model: The experimental protocols were approved by the IACUC (Approval code: IACUC230118) at the CHA Laboratory Animal Research Center. The mice were handled in compliance with the Guidelines for the Care and Use of Animals at the institution. Female C57BL6 mice (seven weeks old (n = 57)) were randomly divided into six groups (n = 8-10): […] All surgeries and pump implantations were performed under aseptic conditions. Mice were anesthetized before removing both sides of the ovaries. In the fourth week following surgery, an Alzet osmotic pump (Durect Corp, #1004) was implanted in the mice. […] Images were acquired at an effective pixel size of 50 μm (130 kV and 60 μA radiation source; 1.0 mm aluminum filter). Subsequently, 3D images were reconstructed from the 2D X-ray projections by implementing the Feldkamp algorithm, and appropriate image corrections, including ring artifact correction, beam hardening correction, and fine-tuning, were processed using NRecon software (SkyScan 1173, Belgium). The dynamic image range (contrast limits) was determined at 0-0.3 in units of attenuation coefficient and was applied to all datasets for optimum image contrast. After acquisition and reconstruction of the datasets, images were first reoriented on each 3D plane using DataViewer software (SkyScan 1173, Belgium) to align the long axis of the femur parallel to the coronal and sagittal planes. Next, 3D morphometric analyses of the distal femur and body of the lumbar vertebrae were performed using CT-Analyzer software (SkyScan 1173, Belgium). Regarding the region of interest (ROI), this work analyzed the 1.5 mm […] trabecular bone of the distal femur metaphysis, excluding the growth plate. The ROIs were delineated using a freehand drawing tool while maintaining a […] clearance from the endosteal surface. […] A global threshold of 60 (1.01573 g cm^-3) was applied to all scans to extract a physiologically accurate representation of the trabecular bone phase. […] All quantitative and structural parameters followed the nomenclature and units recommended by the American Society for Bone and Mineral Research (ASBMR) Histomorphometry Nomenclature Committee. After data quantification,^[ [26b] ^] 3D rendered images were generated to visualize the analyzed regions using the marching cube method. -H&E staining: Following decalcification, the specimens were fixed in paraffin and longitudinally sliced to a thickness of 3 μm using a microtome. Subsequently, each sample was affixed to a slide and exposed to a temperature of 55 °C. […] The slides underwent a 1 min wash in flowing purified water and immersed in Harris hematoxylin-I for 5 min, followed by a 1 min wash under flowing tap water. Sections were briefly immersed in ammonia water for 30 s and washed with tap water for 3 min. Subsequently, the sections were stained with Eosin Y for 2 min and 30 s, followed by gradual drying in 95%-100% ethanol. Any residual stain was rinsed with distilled water and each section was mounted. -Masson's trichrome staining: Following deparaffinization and hydration, the sections underwent treatment with a mordant containing a 5% iron alum solution in a dry oven at 56 °C for 30 min. Sections were washed under running tap water for 5-6 min to remove picric acid. Sections were stained with Weigert's iron hematoxylin solution for 10 min, followed by rinsing with purified water. A 5 min staining with Biebrich scarlet-acid fuchsin solution ensued, succeeded by washing with purified water. The sections were immersed in a phosphomolybdic-phosphotungstic acid solution for 5 min. After discarding the solution, the sections were washed with distilled water. Differentiation was performed in 1% glacial acetic acid solution for 3 min. The solution was discarded, and the remaining stain was washed with distilled water."}, "[3]": {"conditions": "0.5 mg kg^−1, osmotic pump 28 days"}, "[4]": {"conditions": "0.5 mg kg^−1, same concentration of Nutlin‐3"}}, "note": "Like-named read-outs stand apart in the source and are kept apart here.", "data": [{"smiles": "COc1ccc(C2=N[C@H](c3ccc(Cl)cc3)[C@H](c3ccc(Cl)cc3)N2C(=O)N2CCN(CC(=O)NCCCCCCCCOc3cccc4c3C(=O)N(C3CCC(=O)NC3=O)C4=O)C(=O)C2)c(OC(C)C)c1", "note": "(stereo in doubt) [CL144]", "values": [{"measurement": "expression of apoptosis markers Bcl‐2 or cleaved caspase‐3 (bone marrow toxicity)", "setting": "bone marrow; IHC", "value": "no corresponding increase"}, {"measurement": "MDM2 expression (IHC)", "setting": "bone marrow; compared to Con and DMSO group", "value": "effectively reduced MDM2 expression"}, {"measurement": "p53 expression (IHC)", "setting": "bone marrow; compared to Con and DMSO group", "value": "significantly increased p53 expression"}, {"measurement": "AUC(0-inf)", "setting": "[1]; 1.0 mg kg^−1 (iv)", "value": "546 ± 39", "unit": "ng·h/mL"}, {"measurement": "AUC(0-t)", "setting": "[1]; 1.0 mg kg^−1 (iv)", "value": "532 ± 35", "unit": "ng·h/mL"}, {"measurement": "Cmax", "setting": "[1]; 1.0 mg kg^−1 (iv)", "value": "1630 ± 111", "unit": "ng/mL"}, {"measurement": "Tmax", "setting": "[1]; 1.0 mg kg^−1 (iv)", "value": 4.98, "unit": "min"}, {"measurement": "clearance", "setting": "[1]; 1.0 mg kg^−1 (iv)", "value": "30.6 ± 2.1", "unit": "mL/min/kg"}, {"measurement": "half-life", "setting": "[1]; 1.0 mg kg^−1 (iv)", "value": "70.8 ± 6.6", "unit": "min"}, {"measurement": "MRT last", "setting": "[1]; 1.0 mg kg^−1 (iv)", "value": "16.8 ± 1.2", "unit": "min"}, {"measurement": "MRT inf", "setting": "[1]; 1.0 mg kg^−1 (iv)", "value": "25.2 ± 3.6", "unit": "min"}, {"measurement": "Vd", "setting": "[1]; 1.0 mg kg^−1 (iv), read-out: V ss", "value": "0.774 ± 0.092", "unit": "L/kg"}, {"measurement": "AUC(0-t)", "setting": "[1]; 1 mg kg^−1, intravenous administration", "value": 532, "unit": "ng·h/mL"}, {"measurement": "AUC(0-inf)", "setting": "[1]; 10 mg kg^−1 (po)", "value": "256 ± 49", "unit": "ng·h/mL"}, {"measurement": "AUC(0-t)", "setting": "[1]; 10 mg kg^−1 (po)", "value": "252 ± 44", "unit": "ng·h/mL"}, {"measurement": "Cmax", "setting": "[1]; 10 mg kg^−1 (po)", "value": "106 ± 9", "unit": "ng/mL"}, {"measurement": "Tmax", "setting": "[1]; 10 mg kg^−1 (po)", "value": "49.8 ± 17.4", "unit": "min"}, {"measurement": "bioavailability", "setting": "[1]; 10 mg kg^−1 (po)", "value": "4.74 ± 0.83", "unit": "%"}, {"measurement": "half-life", "setting": "[1]; 10 mg kg^−1 (po)", "value": "55.8 ± 15.6", "unit": "min"}, {"measurement": "MRT last", "setting": "[1]; 10 mg kg^−1 (po)", "value": "94.8 ± 21.6", "unit": "min"}, {"measurement": "MRT inf", "setting": "[1]; 10 mg kg^−1 (po)", "value": "100 ± 27.6", "unit": "min"}, {"measurement": "regenerative effect compared with alendronate", "setting": "[2]; 0.5 mg kg^−1", "value": "results comparable to those of the alendronate‐treated group"}, {"measurement": "recovery in BV/TV compared to the OVX group", "setting": "[2]; [3]", "value": 65, "unit": "%"}, {"measurement": "recovery in Tb.N compared to the OVX group", "setting": "[2]; [3]", "value": 58, "unit": "%"}, {"measurement": "improvement in BV/TV compared to the Nutlin‐3 group", "setting": "[2]; [4]", "value": 56, "unit": "%"}, {"measurement": "improvement in Tb.N compared to the Nutlin‐3 group", "setting": "[2]; [4]", "value": 61, "unit": "%"}, {"measurement": "recovery in BMD compared to the OVX group", "setting": "[2]; 1 mg kg^−1, osmotic pump 28 days", "value": 12, "unit": "%"}, {"measurement": "improvement in BMD compared to the Nutlin‐3 group", "setting": "[2]; 1 mg kg^−1, same concentration of Nutlin‐3", "value": 13, "unit": "%"}, {"measurement": "bone histology (H&E staining) versus OVX group", "setting": "[2]; tibia and femur tissues", "value": "newly formed trabecular structures were observed"}]}]}
